Measurements from patent US20230085307A1, “PYRIDAZINONE COMPOUND AND HERBICIDE” (NISSAN CHEMICAL CORPORATION, priority 2019, published 2023).

Tests used:
[1] = system: late watergrass; experiment: Test Example 1: herbicidal activity, application before weed generation under submerged conditions (Table 16, symbol A); format: in vivo, late watergrass (Echinochloa oryzicola); conditions: for Herbicidal effect on A: late watergrass (grade 0-5): 320 g/ha applied herbicide
Outline: (§1)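 Emulsion formulation, water-diluted to set dose, was put onto the flooded surface (4 cm depth, alluvial soil) the same day weeds were sown and 2.5-leaf rice transplanted. After 3 weeks at 25-30 °C under glass, each species was rated 0 (≤5% kill) to 5 (≥90% kill).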

[2] = system: late watergrass; experiment: Test Example 2: herbicidal activity, application during weed generation under submerged conditions (Table 17, symbol A); format: in vivo, late watergrass (Echinochloa oryzicola); conditions: for herbicidal effect rating, A: late watergrass: AAH 320 g/ha, application during weed generation, submerged conditions; for herbicidal effect grade, A: late watergrass: application during weed generation under submerged conditions
Outline: (§2)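 3-wk visual-criteria score after one water-surface dose. Emulsion formulation, water-diluted to set rate; applied at 1–2 leaf stage; alluvial soil, 4 cm standing water; seeds co-sown; greenhouse 25–30° C.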

[3] = system: Japanese bulrush; experiment: Test Example 1: herbicidal activity, application before weed generation under submerged conditions (Table 16, symbol B); format: in vivo, Japanese bulrush (Schoenoplectus juncoides); conditions: for Herbicidal effect on B: Japanese bulrush (grade 0-5): 320 g/ha applied herbicide
Outline: as §1

[4] = system: barnyard grass; experiment: Test Example 3: herbicidal effect by foliage application, Wagner pot (Table 18, symbol H); format: in vivo, barnyard grass (Echinochloa crus-galli); conditions: for herbicidal effect on H (barnyard grass), rating 0-5: 320 g/ha
Outline: (§3)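 Plants were sown in alluvial soil held under 0.1–0.5 cm standing water and grown 14 days in a greenhouse at 25–30 °C. An emulsifiable formulation, water-diluted to the set dose, was then sprayed onto the foliage, and effects were scored three weeks later using previously defined criteria.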

[5] = system: oval-leafed pondweed; experiment: Test Example 1: herbicidal activity, application before weed generation under submerged conditions (Table 16, symbol C); format: in vivo, oval-leafed pondweed (Monochoria vaginalis); conditions: for Herbicidal effect on C: oval-leafed pondweed (grade 0-5): 320 g/ha applied herbicide
Outline: as §1

[6] = system: Chinese sprangletop; experiment: Test Example 3: herbicidal effect by foliage application, Wagner pot (Table 18, symbol D); format: in vivo, chinese sprangletop (Leptochloa chinensis); conditions: for herbicidal effect on D (Chinese sprangletop), rating 0-5: 320 g/ha
Outline: as §3

[7] = system: oval-leafed pondweed; experiment: Test Example 2: herbicidal activity, application during weed generation under submerged conditions (Table 17, symbol C); format: in vivo, oval-leafed pondweed (Monochoria vaginalis); conditions: for herbicidal effect rating, C: oval-leafed pondweed: AAH 320 g/ha, application during weed generation, submerged conditions; for herbicidal effect grade, C: oval-leafed pondweed: application during weed generation under submerged conditions
Outline: as §2

[8] = system: rice flat sedge; experiment: Test Example 3: herbicidal effect by foliage application, Wagner pot (Table 18, symbol E); format: in vivo, rice flat sedge (Cyperus iria); conditions: for herbicidal effect on E (rice flat sedge), rating 0-5: 320 g/ha
Outline: as §3

[9] = system: Japanese bulrush; experiment: Test Example 2: herbicidal activity, application during weed generation under submerged conditions (Table 17, symbol B); format: in vivo, Japanese bulrush (Schoenoplectus juncoides); conditions: for herbicidal effect rating, B: Japanese bulrush: AAH 320 g/ha, application during weed generation, submerged conditions; for herbicidal effect grade, B: Japanese bulrush: application during weed generation under submerged conditions
Outline: as §2

[10] = amount of applied herbicide 320 g/ha
[11] = amount of applied herbicide 438 g/ha

`C=CCCOc1ccc(-c2sc3ccccc3c2-c2c(O)c(C)nn(C)c2=O)cc1` [1-207] was tested, and the “Herbicidal effect on A: late watergrass (grade 0-5)” value [1] was 5 (Herbicidal rate of 90% or more (almost completely withered)), the “herbicidal effect rating, A: late watergrass” value [2] was 5 (Herbicidal rate of 90% or more (almost completely withered)) and the “Herbicidal effect on B: Japanese bulrush (grade 0-5)” value (from here on “Herbicidal effect on B”) [3] was 5 (Herbicidal rate of 90% or more (almost completely withered)). The “herbicidal effect on H (barnyard grass), rating 0-5” value [4] was 5 (Herbicidal rate of 90% or more (almost completely withered)), the “Herbicidal effect on C: oval-leafed pondweed (grade 0-5)” value (“Herbicidal effect on C” for short) [5] was 5 (Herbicidal rate of 90% or more (almost completely withered)) and the “herbicidal effect on D (Chinese sprangletop), rating 0-5” value [6] was 5 (Herbicidal rate of 90% or more (almost completely withered)). The “herbicidal effect rating, C: oval-leafed pondweed” value (“herbicidal effect rating, C” for short) [7] was 5 (Herbicidal rate of 90% or more (almost completely withered)), the “herbicidal effect on E (rice flat sedge), rating 0-5” value [8] was 4 (Herbicidal rate of 70% or more and less than 90%) and the “herbicidal effect rating, B: Japanese bulrush” value (from here on “herbicidal effect rating, B”) [9] was 4 (Herbicidal rate of 70% or more and less than 90%).

For `Cc1nn(C)c(=O)c(-c2c(-c3ccc(OCCOCCCl)cc3)sc3ccccc23)c1O` [1-227], the “Herbicidal effect on A: late watergrass (grade 0-5)” value [1] was 5 (Herbicidal rate of 90% or more (almost completely withered)), the “herbicidal effect rating, A: late watergrass” value [2] was 4 (Herbicidal rate of 70% or more and less than 90%) and the “Herbicidal effect on B” value [3] was 5 (Herbicidal rate of 90% or more (almost completely withered)). The “herbicidal effect on H (barnyard grass), rating 0-5” value [4] was 5 (Herbicidal rate of 90% or more (almost completely withered)), the “Herbicidal effect on C” value [5] was 5 (Herbicidal rate of 90% or more (almost completely withered)) and the “herbicidal effect on D (Chinese sprangletop), rating 0-5” value [6] was 4 (Herbicidal rate of 70% or more and less than 90%). For the same compound, the “herbicidal effect rating, C” value [7] was 3 (Herbicidal rate of 40% or more and less than 70%), the “herbicidal effect on E (rice flat sedge), rating 0-5” value [8] was 4 (Herbicidal rate of 70% or more and less than 90%) and the “herbicidal effect rating, B” value [9] was 3 (Herbicidal rate of 40% or more and less than 70%).

`Cc1nn(C)c(=O)c(-c2c(-c3ccc([S+]([O-])CC(F)F)cc3)sc3ccc(F)cc23)c1O` (stereo not drawn) [2-264] was tested, and the “Herbicidal effect on A: late watergrass (grade 0-5)” value [1] was 4 (Herbicidal rate of 70% or more and less than 90%), the “herbicidal effect rating, A: late watergrass” value [2] was 3 (Herbicidal rate of 40% or more and less than 70%) and the “Herbicidal effect on B” value [3] was 4 (Herbicidal rate of 70% or more and less than 90%). For the same compound, the “herbicidal effect on H: barnyard grass” value [4, 10] was 5 (Herbicidal rate of 90% or more (almost completely withered)), the “Herbicidal effect on C” value [5] was 3 (Herbicidal rate of 40% or more and less than 70%) and the “herbicidal effect on D: Chinese sprangletop” value [6, 10] was 3 (Herbicidal rate of 40% or more and less than 70%). The “herbicidal effect rating, C” value [7] was 3 (Herbicidal rate of 40% or more and less than 70%), the “herbicidal effect on E: rice flat sedge” value [8, 10] was 5 (Herbicidal rate of 90% or more (almost completely withered)) and the “herbicidal effect rating, B” value [9] was 3 (Herbicidal rate of 40% or more and less than 70%).

With `Cc1nn(C)c(=O)c(-c2c(-c3ccc(C[S+](C)[O-])cc3)sc3ccc(F)cc23)c1O` (stereo not drawn) [2-332] the “Herbicidal effect on A: late watergrass (grade 0-5)” value [1] was 2 (Herbicidal rate of 20% or more and less than 40%), the “herbicidal effect rating, A: late watergrass” value [2] was 3 (Herbicidal rate of 40% or more and less than 70%) and the “Herbicidal effect on B” value [3] was 0 (Herbicidal rate of 5% or less (almost no effect)). For the same compound, the “herbicidal effect on H: barnyard grass” value [4, 10] was 5 (Herbicidal rate of 90% or more (almost completely withered)), the “Herbicidal effect on C” value [5] was 0 (Herbicidal rate of 5% or less (almost no effect)) and the “herbicidal effect on D: Chinese sprangletop” value [6, 10] was 3 (Herbicidal rate of 40% or more and less than 70%). The “herbicidal effect rating, C” value [7] was 0 (Herbicidal rate of 5% or less (almost no effect)), the “herbicidal effect on E: rice flat sedge” value [8, 10] was 3 (Herbicidal rate of 40% or more and less than 70%) and the “herbicidal effect rating, B” value [9] was 0 (Herbicidal rate of 5% or less (almost no effect)).

With `CCCC(=O)Oc1c(C)nn(C)c(=O)c1-c1c(-c2ccc(OC)c(Cl)c2)sc2ccc(F)cc12` [2-371] the “Herbicidal effect on A: late watergrass (grade 0-5)” value [1] was 3 (Herbicidal rate of 40% or more and less than 70%), the “herbicidal effect rating, A: late watergrass” value [2] was 0 (Herbicidal rate of 5% or less (almost no effect)) and the “Herbicidal effect on B” value [3] was 3 (Herbicidal rate of 40% or more and less than 70%). For the same compound, the “herbicidal effect on H: barnyard grass” value [4, 10] was 4 (Herbicidal rate of 70% or more and less than 90%), the “Herbicidal effect on C” value [5] was 4 (Herbicidal rate of 70% or more and less than 90%) and the “herbicidal effect on D: Chinese sprangletop” value [6, 10] was 4 (Herbicidal rate of 70% or more and less than 90%). For the same compound, the “herbicidal effect rating, C” value [7] was 4 (Herbicidal rate of 70% or more and less than 90%), the “herbicidal effect on E: rice flat sedge” value [8, 10] was 4 (Herbicidal rate of 70% or more and less than 90%) and the “herbicidal effect rating, B” value [9] was 3 (Herbicidal rate of 40% or more and less than 70%).

In the case of `CCCOc1ccc(-c2oc3ccc(C)cc3c2-c2c(OC(=O)CCC)c(C)nn(C)c2=O)cc1` [9-050], the “Herbicidal effect, A: late watergrass” value [1, 10] was 5 (Herbicidal rate of 90% or more (almost completely withered)), the “herbicidal effect grade, A: late watergrass” value [2, 10] was 3 (Herbicidal rate of 40% or more and less than 70%) and the “Herbicidal effect, B: Japanese bulrush” value [3, 10] was 5 (Herbicidal rate of 90% or more (almost completely withered)). For the same compound, the “Herbicidal effect on H (barnyard grass), foliage application” value [4, 10] was 4 (Herbicidal rate of 70% or more and less than 90%), the “Herbicidal effect, C: oval-leafed pondweed” value (from here on “Herbicidal effect, C”) [5, 10] was 5 (Herbicidal rate of 90% or more (almost completely withered)) and the “Herbicidal effect on D (Chinese sprangletop), foliage application” value (“Herbicidal effect on D … foliage application” for short) [6, 10] was 3 (Herbicidal rate of 40% or more and less than 70%). The “herbicidal effect grade, C: oval-leafed pondweed” value (shortened to “herbicidal effect grade, C”) [7, 10] was 5 (Herbicidal rate of 90% or more (almost completely withered)), the “Herbicidal effect on E (rice flat sedge), foliage application” value [8, 10] was 5 (Herbicidal rate of 90% or more (almost completely withered)) and the “herbicidal effect grade, B: Japanese bulrush” value (“herbicidal effect grade, B” below) [9, 10] was 3 (Herbicidal rate of 40% or more and less than 70%).

For `CCCC(=O)Oc1c(C)nn(C)c(=O)c1-c1c(-c2ccc(OCC(C)C)cc2)oc2ccc(C)cc12` [9-052], the “Herbicidal effect, A: late watergrass” value [1, 10] was 5 (Herbicidal rate of 90% or more (almost completely withered)), the “herbicidal effect grade, A: late watergrass” value [2, 10] was 3 (Herbicidal rate of 40% or more and less than 70%) and the “Herbicidal effect, B: Japanese bulrush” value [3, 10] was 5 (Herbicidal rate of 90% or more (almost completely withered)). For the same compound, the “Herbicidal effect on H (barnyard grass), foliage application” value [4, 10] was 5 (Herbicidal rate of 90% or more (almost completely withered)), the “Herbicidal effect, C” value [5, 10] was 4 (Herbicidal rate of 70% or more and less than 90%) and the “Herbicidal effect on D … foliage application” value [6, 10] was 0 (Herbicidal rate of 5% or less (almost no effect)). For the same compound, the “herbicidal effect grade, C” value [7, 10] was 4 (Herbicidal rate of 70% or more and less than 90%), the “Herbicidal effect on E (rice flat sedge), foliage application” value [8, 10] was 4 (Herbicidal rate of 70% or more and less than 90%) and the “herbicidal effect grade, B” value [9, 10] was 3 (Herbicidal rate of 40% or more and less than 70%).

With `CCCC(=O)Oc1c(C)nn(C)c(=O)c1-c1c(-c2ccc(SC)cc2)oc2ccc(C)cc12` [9-056] the “Herbicidal effect, A: late watergrass” value [1, 11] was 5 (Herbicidal rate of 90% or more (almost completely withered)), the “herbicidal effect grade, A: late watergrass” value [2, 11] was 3 (Herbicidal rate of 40% or more and less than 70%) and the “Herbicidal effect, B: Japanese bulrush” value [3, 11] was 4 (Herbicidal rate of 70% or more and less than 90%). For the same compound, the “Herbicidal effect on H (barnyard grass), foliage application” value [4, 11] was 5 (Herbicidal rate of 90% or more (almost completely withered)), the “Herbicidal effect, C” value [5, 11] was 4 (Herbicidal rate of 70% or more and less than 90%) and the “Herbicidal effect on D … foliage application” value [6, 11] was 3 (Herbicidal rate of 40% or more and less than 70%). For the same compound, the “herbicidal effect grade, C” value [7, 11] was 4 (Herbicidal rate of 70% or more and less than 90%), the “Herbicidal effect on E (rice flat sedge), foliage application” value [8, 11] was 4 (Herbicidal rate of 70% or more and less than 90%) and the “herbicidal effect grade, B” value [9, 11] was 3 (Herbicidal rate of 40% or more and less than 70%).
